In ChEMBL document CHEMBL1125927, “New isomeric classes of topically active ocular hypotensive carbonic anhydrase inhibitors: 5-substituted thieno[2,3-b]thiophene-2-sulfonamides and 5-substituted thieno[3,2-b]thiophene-2-sulfonamides” (J Med Chem, 1991):
“And” between values parts separate entries of the source, which are not always exact repeats. Equal values may be shown once.

Legend:
Carbonic anhydrase 2 [1] = target: T1, Carbonic anhydrase 2 (Homo sapiens, UniProt P00918)
Description: In vitro inhibitory activity against human carbonic anhydrase II

physchem [2] = settings: octanol/water, pH 7.4
Description: Partition coefficient (logD7.4)

Carbonic anhydrase 2 [3] = target: T1, Carbonic anhydrase 2; remark: listed apart in the source
Description: In vitro binding affinity against human carbonic anhydrase II

physchem [4] = assay: physchem
Description: Dissociation constant (pKa)

Carbonic anhydrase 2 [5] = target: T1, Carbonic anhydrase 2; remark: listed apart in the source
Description: The compound was tested for in vitro binding affinity against human Carbonic anhydrase II

Carbonic anhydrase 2 [6] = target: T1, Carbonic anhydrase 2; remark: listed apart in the source
Description: The compound was tested for in vitro inhibitory activity against human Carbonic anhydrase II

Oryctolagus cuniculus [7] = organism: Oryctolagus cuniculus; assay: Intraocular pressure studies in normotensive albino rabbits was performed; type: functional; further: test concentration or dose not given here
Oryctolagus cuniculus [8] = organism: Oryctolagus cuniculus; assay: Intraocular pressure studies in hypertensive pigmented rabbits was performed; type: functional; further: test concentration or dose not given here
Oryctolagus cuniculus [9] = organism: Oryctolagus cuniculus; assay: Intraocular pressure studies were performed for the compound and compared with MK-927; type: functional; further: test concentration or dose not given here
Oryctolagus cuniculus [10] = organism: Oryctolagus cuniculus; assay: Intraocular pressure studies in normotensive pigmented rabbits was performed; type: functional; further: test concentration or dose not given here
Carbonic anhydrase 2 [11] = target: T1, Carbonic anhydrase 2; assay: The compound was tested for in vitro inhibitory activity against human carbonic anhydrase II; settings: read-out: I50
Carbonic anhydrase 2 [12] = target: T1, Carbonic anhydrase 2; assay: The compound was tested for in vitro inhibitory activity against human carbonic anhydrase II.; settings: read-out: I50

Description for Bos taurus: The binding to bovine iris and ciliary body pigment

Compound | Pigment binding (Bos taurus) | IC50 (Carbonic anhydrase 2 [1]) | logD (physchem [2]) | Ki (Carbonic anhydrase 2 [3]) | pKa (physchem [4]) | further results
NS(=O)(=O)c1cc2cc(C(=O)NCC(O)CO)sc2s1 (centres undefined) | 36.7% | 3.2 nM | -0.347 | 3.4 nM |  | 
COCCNCc1cc2cc(S(N)(=O)=O)sc2s1.Cl | 88% | 5 nM | 0.324 | 3.9 nM | 7 | 
CC(C)CNCc1cc2cc(S(N)(=O)=O)sc2s1 |  | 2.5 nM | 0.924 | 4.4 nM | 7.9 | 
NS(=O)(=O)c1cc2cc(C(=O)N(CCO)CCO)sc2s1 |  | 6.6 nM |  | 9 nM |  | 
NS(=O)(=O)c1cc2cc(CNCC3CC3)sc2s1 |  | 3.3 nM | 0.398 | 6.7 nM | 7.72 | 
CNCc1cc2cc(S(N)(=O)=O)sc2s1.Cl | 92.1% | 3 nM | -0.538 |  | 8.02 | Ki (Carbonic anhydrase 2 [5]): 20.9 nM
COCCOCCN(CCOC)C(Cc1ccc(F)cc1)c1cc2cc(S(N)(=O)=O)sc2s1 (centres undefined) |  | 1.15 nM |  | 6.54 nM |  | 
CS(=O)(=O)CCNCc1cc2cc(S(N)(=O)=O)sc2s1.Cl | 56.8% |  | -0.26 |  | 5.2 | IC50 (Carbonic anhydrase 2 [6]): 4.5 nM; Ki (Carbonic anhydrase 2 [5]): 4.8 nM
COCCN(CCNC(=O)c1cc2cc(S(N)(=O)=O)sc2s1)CCOC.Cl | 87.5% | 2.5 nM |  |  |  | 
C[S+]([O-])CCNCc1cc2cc(S(N)(=O)=O)sc2s1.Cl (centres undefined) | 67.5% | 8.4 nM | -0.444 | 5.5 nM | 5.58 | 
OCc1cc2ccsc2s1 |  |  |  |  |  | IOP (Oryctolagus cuniculus [7]): -3 mmHg
C[S+]([O-])CCNC(=O)c1cc2cc(S(N)(=O)=O)sc2s1 (centres undefined) | 35.6% | 4.6 nM | -0.155 | 2.39 nM |  | 
Cl.NS(=O)(=O)c1cc2cc(C(=O)NCCN3CCSCC3)sc2s1 | 96.4% | 2.9 nM | 1.5 | 4.02 nM | 6.03 | 
CNCc1cc2sc(S(N)(=O)=O)cc2s1.Cl | 87.3% | 3.2 nM | -0.495 | 11.8 nM | 7.65 | 
Cl.NS(=O)(=O)c1cc2cc(CN3CCOCC3)sc2s1 | 42.9% | 3 nM | 1.17 | 1.1 nM | 5.25 | 
CC(C)CNCc1cc2sc(S(N)(=O)=O)cc2s1.Cl | 86.5% | 2.8 nM | 1.24 | 2.7 nM | 7.6 | 
Cl.NS(=O)(=O)c1cc2cc(CN3CCSCC3)sc2s1 | 69.9% | 2.6 nM | 1.14 | 0.44 nM | 5.05 | 
COCCOCCN(CCOC)Cc1cc2cc(S(N)(=O)=O)sc2s1.Cl | 38.5% | 2.8 nM | 1.14 | 1.58 nM | 5.55 | IOP (Oryctolagus cuniculus [8]): -4.4 mmHg; IOP (Oryctolagus cuniculus [9]): -5.3 mmHg; IOP (Oryctolagus cuniculus [10]): -4.8 mmHg; IOP (Oryctolagus cuniculus [7]): -3.3 mmHg
CC(C=O)N(Cc1cc2cc(S(N)(=O)=O)sc2s1)C(C)C=O.Cl (centres undefined) | 49.7% |  | 1.17 |  | 5.75 | IC50 (Carbonic anhydrase 2 [6]): 2.71 nM; Ki (Carbonic anhydrase 2 [5]): 1.49 nM
Cl.NS(=O)(=O)c1cc2cc(CN(CCO)CCO)sc2s1 | 71.8% | 2.27 nM | 0.23 | 2.6 nM | 5.5 | 
NS(=O)(=O)c1cc2cc(CN3CC[S+]([O-])CC3)sc2s1 |  | 4 nM | 0.111 | 3.4 nM | 4.23 | 

Compound | Pigment binding (Bos taurus) | IC50 (Carbonic anhydrase 2 [1]) | logD (physchem [2]) | Ki (Carbonic anhydrase 2 [3]) | pKa (physchem [4]) | further results
CNC(=O)c1cc2cc(S(N)(=O)=O)sc2s1 |  |  |  |  | 5.2 | 
COC(=O)CSc1sccc1C1OCCO1 |  |  |  |  |  | IOP (Oryctolagus cuniculus [8]): -2.1 mmHg; IOP (Oryctolagus cuniculus [9]): -3.9 mmHg and -4.8 mmHg; IOP (Oryctolagus cuniculus [10]): -1.6 mmHg; IOP (Oryctolagus cuniculus [7]): -1.4 mmHg
COCCOCCN(CCOCCOC)Cc1cc2cc(S(N)(=O)=O)sc2s1.Cl | 40.3% |  | 0.992 |  | 5.72 | IC50 (Carbonic anhydrase 2 [6]): 3.95 nM; Ki (Carbonic anhydrase 2 [5]): 2.77 nM
CN(C)CCNC(=O)c1cc2cc(S(N)(=O)=O)sc2s1.Cl | 97% | 8.8 nM | -0.398 | 11 nM | 7.48 | 
NS(=O)(=O)c1cc2cc(CNCCCCO)sc2s1 |  | 3 nM | -0.678 |  | 7.7 | 
COCCNCc1cc2sc(S(N)(=O)=O)cc2s1.Cl | 81.9% | 2.8 nM | 0.509 | 3.1 nM | 6.65 | 
COCCN(CCOC)Cc1cc2sc(S(N)(=O)=O)cc2s1.Cl | 41.4% | 2.5 nM | 1.56 | 0.95 nM | 5.48 | 
NCc1cc2cc(S(N)(=O)=O)sc2s1 | 92% | 14 nM |  |  | 7.3 | 
COCCN(CCOC)Cc1cc2cc(S(N)(=O)=O)sc2s1.Cl | 50% | 4.2 nM | 1.58 | 1.34 nM | 5.34 | IOP (Oryctolagus cuniculus [9]): -4.6 mmHg; IOP (Oryctolagus cuniculus [10]): -4.1 mmHg; IOP (Oryctolagus cuniculus [7]): -2.6 mmHg
NS(=O)(=O)c1cc2cc(CNCCO)sc2s1 |  | 6.3 nM | -0.721 |  | 7.18 | 
COCCOCCCNCc1cc2cc(S(N)(=O)=O)sc2s1.Cl | 87.5% | 6.5 nM | -0.137 |  | 7.4 | 
COCCOCCN(CCOC)C(C)c1cc2cc(S(N)(=O)=O)sc2s1 (centres undefined) |  | 0.5 nM |  | 1.54 nM |  | 
COCCOCCNC(C)c1cc2cc(S(N)(=O)=O)sc2s1.Cl (centres undefined) | 71.9% |  | 0.708 | 3.05 nM | 7.13 | IC50 (Carbonic anhydrase 2 [11]): 0.7 nM
O=Cc1cc2ccsc2s1 |  |  |  |  |  | IOP (Oryctolagus cuniculus [10]): -1.6 mmHg; IOP (Oryctolagus cuniculus [7]): -1.3 mmHg
NS(=O)(=O)c1cc2cc(CNC(CO)CO)sc2s1 |  | 8.4 nM |  |  | 6.95 | 
Cl.NS(=O)(=O)c1cc2cc(CNCC(F)(F)F)sc2s1 | 21.1% | 2.2 nM |  |  | 3.75 | 
Cl.NS(=O)(=O)c1cc2cc(CNCCF)sc2s1 | 81.9% | 2.7 nM | 0.702 | 1.98 nM | 6.4 | 
COCCCNCc1cc2cc(S(N)(=O)=O)sc2s1.Cl | 85.4% | 4.9 nM | 0.204 |  | 7.52 | 
CC(C)(C)NCc1cc2cc(S(N)(=O)=O)sc2s1 |  |  | -0.0757 | 36.8 nM | 8.28 | IC50 (Carbonic anhydrase 2 [12]): 10 nM
Cl.NS(=O)(=O)c1cc2cc(C(=O)NCCN3CCOCC3)sc2s1 | 91.6% | 2.9 nM | 0.587 | 6.38 nM | 5.8 | 
